This note sets out measurements from patent US7388025B2, “3-aryl-isoxazole-4-carbonyl-benzofuran derivatives” (Hoffman-La Roche Inc., priority 2005, dated 2008).

The test deals with T1, human GABA A receptor α5β3γ2 (Homo sapiens, UniProt P18507+P31644).
T1 construct: expressed in transfected cells; host or cells: HEK293 cells, transiently transfected; membranes prepared from them
As to the kind of experiment: [3H]flumazenil competition binding, HEK293 cells expressing human GABA A α5β3γ2 receptors. Particulars: human α5β3γ2 in HEK293 (transiently transfected), 0.5 nM [3H]flumazenil, mean of two determinations; read-out: Ki[nM] hα5. On the procedure:
Membrane Preparation and Binding Assay
The affinity of compounds at GABA A receptor subtypes was measured by competition for [3H]flumazenil (85 Ci/mmol; Roche) binding to HEK293 cells expressing rat (stably transfected) or human (transiently transfected) receptors of composition α1β3γ2, α2β3γ2, α3β3γ2 and α5β3γ2.
Cell pellets were suspended in Krebs-tris buffer (4.8 mM KCl, 1.2 mM CaCl2, 1.2 mM MgCl2, 120 mM NaCl, 15 mM Tris; pH 7.5; binding assay buffer), homogenized by polytron for ca. 20 sec on ice and centrifuged for 60 min at 4° C. (50000 g; Sorvall, rotor: SM24=20000 rpm). The cell pellets were resuspended in Krebs-tris buffer and homogenized by polytron for ca. 15 sec on ice. Protein was measured (Bradford method, Bio-Rad) and aliquots of 1 mL were prepared and stored at −80° C.
Radioligand binding assays were carried out in a volume of […] (96-well plates) which contained […] of cell memebranes, [3H]flumazenil at a concentration of 1 nM for α1, α2, α3 subunits and 0.5 nM for α5 subunits and the test compound in the range of […]. Nonspecific binding was defined by 10^−5 M diazepam and typically represented less than 5% of the total binding. Assays were incubated to equilibrium for 1 hour at 4° C. and harvested onto GF/C uni-filters (Packard) by filtration using a Packard harvester and washing with ice-cold wash buffer (50 mM Tris; pH 7.5). After drying, filter-retained radioactivity was detected by liquid scintillation counting. Ki values were calculated using Excel-Fit (Microsoft) and are the means of two determinations.
For `Cc1onc(-c2ccc(Br)cc2)c1C(=O)c1cc2cccc(OCc3ccccn3)c2o1` [Example 34, [3-(4-Bromo-phenyl)-5-methyl-isoxazol-4-yl]-[7-(pyridin-2-ylmethoxy)-benzofuran-2-yl]-methanone], the Ki came out at 36.3 nM.
Consider `Cc1onc(-c2ccc(Br)cc2)c1C(=O)c1cc2cccc(OCc3ncnn3C)c2o1` [Example 38, [3-(4-Bromo-phenyl)-5-methyl-isoxazol-4-yl]-[7-(2-methyl-2H-[1,2,4]triazol-3-ylmethoxy)-benzofuran-2-yl]-methanone], for which the Ki stood at 15.1 nM.
Under `Cc1onc(-c2ccccc2)c1C(=O)c1cc2cc(OC(F)(F)F)ccc2o1` [Example 23, (5-Methyl-3-phenyl-isoxazol-4-yl)-(5-trifluoromethoxy-benzofuran-2-yl)-methanone] stands 10.1 nM.
Consider `COc1cccc2oc(C(=O)c3c(-c4ccc(Br)cc4)noc3C)cc12` [Example 44, [3-(4-Bromo-phenyl)-5-methyl-isoxazol-4-yl]-(4-methoxy-benzofuran-2-yl)-methanone], for which the inhibition constant Ki was determined as 4.8 nM.
In the case of `Cc1onc(-c2ccccc2)c1C(=O)c1cc2cccc(OCC(=O)NC(C)C)c2o1` [Example 13, N-Isopropyl-2-[2-(5-methyl-3-phenyl-isoxazole-4-carbonyl)-benzofuran-7-yloxy]-acetamide], the inhibition constant (Ki) stood at 1.8 nM.
On to `Cc1onc(-c2ccccc2)c1C(=O)c1cc2cccc(OCc3ccncc3)c2o1` [Example 10, (5-Methyl-3-phenyl-isoxazol-4-yl)-[7-(pyridin-4-ylmethoxy)-benzofuran-2-yl]-methanone], for which the Ki amounted to 27.9 nM.
Under `Cc1onc(-c2ccccc2)c1C(=O)c1cc2cccc(OCc3ccccn3)c2o1` [Example 8, (5-Methyl-3-phenyl-isoxazol-4-yl)-[7-(pyridin-2-ylmethoxy)-benzofuran-2-yl]-methanone] stands 16.7 nM; under `COc1cc(OC)c2cc(C(=O)c3c(-c4ccccc4)noc3C)oc2c1` [Example 26, (4,6-Dimethoxy-benzofuran-2-yl)-(5-methyl-3-phenyl-isoxazol-4-yl)-methanone], 4.3 nM; under `COc1ccc2oc(C(=O)c3c(-c4ccccc4)noc3C)cc2c1` [Example 22, (5-Methoxy-benzofuran-2-yl)-(5-methyl-3-phenyl-isoxazol-4-yl)-methanone], 4.6 nM.
Under `Cc1onc(-c2ccc(Br)cc2)c1C(=O)c1cc2ccccc2o1` [Example 28, Benzofuran-2-yl-[3-(4-bromo-phenyl)-5-methyl-isoxazol-4-yl]-methanone] stands 8.1 nM; under `CCOc1cccc2cc(C(=O)c3c(-c4ccccc4)noc3C)oc12` [Example 6, (7-Ethoxy-benzofuran-2-yl)-(5-methyl-3-phenyl-isoxazol-4-yl)-methanone], 6.5 nM; under “(5-Methoxy-benzofuran-2-yl)-(5-methyl-3-phenyl-isoxazol-4-yl)-methanone [Example 21]”, 1.4 nM.
Under `Cc1onc(-c2ccccc2)c1C(=O)c1cc2c(ccc3ccccc32)o1` [Example 27, (5-Methyl-3-phenyl-isoxazol-4-yl)-naphtho[2,1-b]furan-2-yl-methanone] stands 13.7 nM.
`Cc1onc(-c2ccccc2)c1C(=O)c1cc2ccc(O)cc2o1` [Example 16, (6-Hydroxy-benzofuran-2-yl)-(5-methyl-3-phenyl-isoxazol-4-yl)-methanone]: the Ki is 3.7 nM.
On to `Cc1onc(-c2ccc(Br)cc2)c1C(=O)c1cc2ccc(O)cc2o1` [Example 40, [3-(4-Bromo-phenyl)-5-methyl-isoxazol-4-yl]-(6-hydroxy-benzofuran-2-yl)-methanone], for which the inhibitory constant (Ki) worked out at 9.3 nM.
Under `Cc1cc(COc2cccc3cc(C(=O)c4c(-c5ccc(Br)cc5)noc4C)oc23)on1` [Example 39, [3-(4-Bromo-phenyl)-5-methyl-isoxazol-4-yl]-[7-(3-methyl-isoxazol-5-ylmethoxy)-benzofuran-2-yl]-methanone] stands 63.8 nM.
The value for `COc1ccc2cc(C(=O)c3c(-c4ccccc4)noc3C)oc2c1` [Example 17, (6-Methoxy-benzofuran-2-yl)-(5-methyl-3-phenyl-isoxazol-4-yl)-methanone] was 3.5 nM; that for `Cc1onc(-c2ccc(Br)cc2)c1C(=O)c1cc2cccc(OCc3ccncc3)c2o1` [Example 36, [3-(4-Bromo-phenyl)-5-methyl-isoxazol-4-yl]-[7-(pyridin-4-ylmethoxy)-benzofuran-2-yl]-methanone] was 35.9 nM; that for `COc1ccc2oc(C(=O)c3c(-c4ccc(Br)cc4)noc3C)cc2c1` [Example 43, [3-(4-Bromo-phenyl)-5-methyl-isoxazol-4-yl]-(5-methoxy-benzofuran-2-yl)-methanone] was 2.9 nM.
Under `Cc1cc(COc2cccc3cc(C(=O)c4c(-c5ccccc5)noc4C)oc23)on1` [Example 15, [7-(3-Methyl-isoxazol-5-ylmethoxy)-benzofuran-2-yl]-(5-methyl-3-phenyl-isoxazol-4-yl)-methanone] stands 18.9 nM; under `Cc1onc(-c2ccc(Br)cc2)c1C(=O)c1cc2cccc(OCC(=O)NC(C)C)c2o1` [Example 37, 2-{2-[3-(4-Bromo-phenyl)-5-methyl-isoxazole-4-carbonyl]-benzofuran-7-yloxy}-N-isopropyl-acetamide], 2.3 nM.
For `COc1cccc2oc(C(=O)c3c(-c4ccccc4)noc3C)cc12` [Example 25, (4-Methoxy-benzofuran-2-yl)-(5-methyl-3-phenyl-isoxazol-4-yl)-methanone], the inhibitory constant (Ki) worked out at 10.6 nM.
Under `Cc1onc(-c2ccccc2)c1C(=O)c1cc2ccccc2o1` [Example 1, Benzofuran-2-yl-(5-methyl-3-phenyl-isoxazol-4-yl)-methanone] stands 15.2 nM; under `Cc1onc(-c2ccc(Br)cc2)c1C(=O)c1cc2cc(O)ccc2o1` [Example 42, [3-(4-Bromo-phenyl)-5-methyl-isoxazol-4-yl]-(5-hydroxy-benzofuran-2-yl)-methanone], 4.6 nM.
Under `COc1cccc2cc(C(=O)c3c(-c4ccccc4)noc3C)oc12` [Example 5, (7-Methoxy-benzofuran-2-yl)-(5-methyl-3-phenyl-isoxazol-4-yl)-methanone] stands 4 nM; under `Cc1onc(-c2ccccc2)c1C(=O)c1cc2cccc(F)c2o1` [Example 2, (7-Fluoro-benzofuran-2-yl)-(5-methyl-3-phenyl-isoxazol-4-yl)-methanone], 17.8 nM.
Under `Cc1onc(-c2ccc(Br)cc2)c1C(=O)c1cc2cccc(F)c2o1` [Example 29, [3-(4-Bromo-phenyl)-5-methyl-isoxazol-4-yl]-(7-fluoro-benzofuran-2-yl)-methanone] stands 11.7 nM.
For `Cc1onc(-c2ccccc2)c1C(=O)c1cc2cccc(O)c2o1` [Example 4, (7-Hydroxy-2-benzofuranyl)(5-methyl-3-phenyl-4-isoxazolyl)methanone], the Ki came to 6.9 nM.
The value for `Cc1onc(-c2ccc(Br)cc2)c1C(=O)c1cc2cccc(OCc3cccnc3)c2o1` [Example 35, [3-(4-Bromo-phenyl)-5-methyl-isoxazol-4-yl]-[7-(pyridin-3-ylmethoxy)-benzofuran-2-yl]-methanone] was 36.4 nM.
Under `Cc1onc(-c2ccc(Br)cc2)c1C(=O)c1cc2cccc(O)c2o1` [Example 30, [3-(4-Bromo-phenyl)-5-methyl-isoxazol-4-yl]-(7-hydroxy-benzofuran-2-yl)-methanone] stands 17.4 nM.

As a reminder, the Ki is the dissociation constant of the complex between target and ligand, obtained from inhibition or displacement.
